Test results reported in patent US20100240040A1, “METHOD FOR SCREENING FOR SELECTIVE MODULATOR OF THE NF-KB PATHWAY ACTIVATION” (INSTITUT PASTEUR, priority 2007, published 2010).

Experiments:
[1] = target: T1, CC2-LZ dimer (Biot-CC2-LZ/His-CC2-LZ) (Mus musculus, UniProt O88522); assay: HTRF assay, CC2-LZ dimerization induced by ubiquitin binding; settings: added to Biot-CC2-LZ/His-CC2-LZ mixture at nM concentration
T1 construct: made in house; Biot-CC2-LZ by chemical synthesis
Source text: (§1) The Homogeneous Time Resolved Fluorescence (HTRF®) assay reagents anti-(His)6 monoclonal antibody labeled with XL665 (MABHis6-XL) and streptavidin-Europium cryptate (streptavidin-EuK) were purchased from CIS-Bio. The His-CC2-LZ peptide (SEQ ID NO: 30 and 31) was purified as described in Agou et al., 2004a and the biotin tagged CC2-LZ peptide (SEQ ID NO: 28 and 29) was chemically synthezised as described in Wyler et al., 2007.
All measurements of fluorescence resonance energy transfer (FRET) were performed using the microplate reader Mithras LB 940 (Berthold Technologies). HTRF® principle
In HTRF experiments, the pure His-CC2-LZ protein was labeled by anti-His-XL665 mAb and biot-CC2-LZ was labeled by streptavidin-EuK. […] Upon excitation of Europium cryptate at 320 nm, FRET occurs between these two fluorophores, and XL665 re-emits a specific long-lived fluorescence at 665 nm.
All experiments were carried out in a black microplate Greiner (200 μl) at 25° C. The excitation wavelength was 320 nm and the fluorescence emissions were measured at 620 nm and at 665 nm to normalize the specific signal. Fluorescence emission was recorded at both wavelengths after an 50 μs delay, which reduces background noise introduced by the media and the free acceptor molecules. The FRET signal is calculated using the following equation: […]

Biot-CC2-LZ = target: T2, Biot-CC2-LZ (Mus musculus, UniProt O88522); assay: HTRF assay, complex with Biot-CC2-LZ (negative and positive controls); format: binding; settings: each subunit of CC2-LZ at nM concentration, no ubiquitin
T2 construct: made in house; host or cells: chemical synthesis
Source text: as §1
In HTRF experiments, the pure His-CC2-LZ protein was labeled by anti-His-XL665 mAb and biot-CC2-LZ was labeled by streptavidin-EuK. Dimerization of His-CC2-LZ and Biot-CC2-LZ leads the donor (Steptavidin-EuK) and the acceptor (anti-His-XL665) into close proximity. Upon excitation of Europium cryptate at 320 nm, FRET occurs between these two fluorophores, and XL665 re-emits a specific long-lived fluorescence at 665 nm.
All experiments were carried out in a black microplate Greiner (200 μl) at 25° C. The excitation wavelength was 320 nm and the fluorescence emissions were measured at 620 nm and at 665 nm to normalize the specific signal. Fluorescence emission was recorded at both wavelengths after an 50 μs delay, which reduces background noise introduced by the media and the free acceptor molecules. The FRET signal is calculated using the following equation:
ΔF=[(R−Rneg)/Rneg]*100 (1) […]

CC2-LZ = CC2-LZ (Mus musculus, UniProt O88522); assay: Affinity of CC2-LZ dimerization; format: binding
Chain of CC2-LZ (O88522 250-339 limits assumed): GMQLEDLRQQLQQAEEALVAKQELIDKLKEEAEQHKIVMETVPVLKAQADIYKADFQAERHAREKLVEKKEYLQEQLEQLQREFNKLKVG

T1 sequence (O88522 with tags, fused parts or gaps, one chain of several): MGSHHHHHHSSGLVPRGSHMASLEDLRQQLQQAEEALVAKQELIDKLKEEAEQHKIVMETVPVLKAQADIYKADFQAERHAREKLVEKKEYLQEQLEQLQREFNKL

| Substance | FRET signal (in words) [1] | FRET signal (in words) (Biot-CC2-LZ) | Kd (CC2-LZ) [µM] |
| --- | --- | --- | --- |
| GST: GST protein alone, control | no FRET signal was detected | – | – |
| LEDLRQQLQQAEEALVAKQELIDKLKEEAEQHKIVMETVPVLKAQADIYKADFQAERHAREKLVEKKEYLQEQLEQLQREFNKL [CC2-LZ] | – | no FRET signal was observed | 22 |
